Reference: ChEMBL document CHEMBL1201862, “PubChem BioAssay data set” (2004)
Calls of active or inactive are those of the source.

Tests used:
[1] = biological target: Mitogen-activated protein kinase 10 (Homo sapiens, UniProt P53779); assay: Dose response biochemical screening assay for inhibitors of c-Jun N-Terminal Kinase 3 (JNK3). [Related pubchem assays: 746 ]
Protein RecA = biological target: T1, Protein RecA (Mycobacterium tuberculosis, UniProt P9WHJ3); assay: Fluorescence Cell-Free Homogeneous Dose Retest to Identify Inhibitors of RecA-Intein Splicing Activity. [Related pubchem assays (depositor defined):AID2097, AID2223, AID489010, AID492950]; type: functional
T1 sequence (P9WHJ3 whole entry): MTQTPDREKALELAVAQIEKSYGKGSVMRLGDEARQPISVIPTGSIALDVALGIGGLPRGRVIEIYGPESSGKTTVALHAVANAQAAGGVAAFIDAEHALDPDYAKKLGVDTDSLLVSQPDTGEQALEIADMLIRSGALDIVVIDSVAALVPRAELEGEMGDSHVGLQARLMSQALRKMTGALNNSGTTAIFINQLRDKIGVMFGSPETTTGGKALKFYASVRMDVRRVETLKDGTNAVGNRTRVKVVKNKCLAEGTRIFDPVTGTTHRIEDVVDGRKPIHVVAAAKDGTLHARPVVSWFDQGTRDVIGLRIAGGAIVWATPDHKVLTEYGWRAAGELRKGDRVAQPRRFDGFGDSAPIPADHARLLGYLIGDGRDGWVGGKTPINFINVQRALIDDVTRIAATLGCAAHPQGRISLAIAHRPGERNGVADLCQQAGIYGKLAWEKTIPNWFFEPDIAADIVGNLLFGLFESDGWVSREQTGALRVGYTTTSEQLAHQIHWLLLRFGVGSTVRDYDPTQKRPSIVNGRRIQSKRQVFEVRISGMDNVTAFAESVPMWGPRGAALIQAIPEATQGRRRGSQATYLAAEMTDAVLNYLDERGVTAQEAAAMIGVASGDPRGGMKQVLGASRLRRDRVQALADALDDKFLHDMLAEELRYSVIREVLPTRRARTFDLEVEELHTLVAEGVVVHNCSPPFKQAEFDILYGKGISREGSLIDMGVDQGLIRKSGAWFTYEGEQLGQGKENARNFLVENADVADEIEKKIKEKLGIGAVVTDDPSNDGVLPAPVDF

[2] = biological target: E3 ubiquitin-protein ligase Mdm2 (Homo sapiens, UniProt Q00987); assay: enhancers of MDM2-luciferase reporter signal, concentration-effect titration, project on inhibitors of MDM2 ubiquitin ligase, cellular assay, luminescent readout, 384-well plate format (AID 1394); type: functional;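 further: MDM2 E3 inhibitors raise luminescence so EC50 is for signal enhancement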
[3] = biological target: T2, Replicative DNA helicase DnaB (Mycobacterium tuberculosis, UniProt P9WMR3); assay: DnaB intein splicing inhibitors, dose response, biochemical, cell-free fluorescence (AID 449749); type: functional
T2 sequence (P9WMR3 whole entry): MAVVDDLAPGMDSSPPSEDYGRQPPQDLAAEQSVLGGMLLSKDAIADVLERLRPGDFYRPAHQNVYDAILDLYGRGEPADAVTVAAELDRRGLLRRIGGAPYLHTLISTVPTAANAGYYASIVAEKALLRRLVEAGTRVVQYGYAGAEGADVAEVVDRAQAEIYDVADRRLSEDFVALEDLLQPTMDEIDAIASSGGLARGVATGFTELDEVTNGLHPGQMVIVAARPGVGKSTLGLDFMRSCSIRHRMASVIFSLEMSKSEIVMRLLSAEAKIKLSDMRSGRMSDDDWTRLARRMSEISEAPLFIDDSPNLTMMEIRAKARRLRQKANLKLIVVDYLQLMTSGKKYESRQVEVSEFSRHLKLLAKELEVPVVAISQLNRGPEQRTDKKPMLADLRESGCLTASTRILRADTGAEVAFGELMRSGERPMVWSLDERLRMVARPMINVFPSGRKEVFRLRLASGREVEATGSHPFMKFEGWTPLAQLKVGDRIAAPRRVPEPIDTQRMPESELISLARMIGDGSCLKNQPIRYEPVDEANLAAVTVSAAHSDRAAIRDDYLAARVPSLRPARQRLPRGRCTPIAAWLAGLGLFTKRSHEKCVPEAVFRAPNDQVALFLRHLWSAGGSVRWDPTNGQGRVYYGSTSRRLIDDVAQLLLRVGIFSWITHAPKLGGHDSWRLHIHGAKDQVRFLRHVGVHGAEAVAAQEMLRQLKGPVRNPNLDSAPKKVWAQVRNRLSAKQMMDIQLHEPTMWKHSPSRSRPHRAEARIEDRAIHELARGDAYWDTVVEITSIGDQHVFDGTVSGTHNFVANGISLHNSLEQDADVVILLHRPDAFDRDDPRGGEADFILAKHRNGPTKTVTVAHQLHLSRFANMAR

[4] = biological target: G-protein coupled receptor 55 (Homo sapiens, UniProt Q9Y2T6); assay: GPR55 antagonists blocking LPI-driven arrestin recruitment, primary screen, imaging, U2OS, beta-arrestin-GFP, LPI agonist (AID 2013); type: functional;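 further: antagonist potency measured as reduced agonist-driven arrestin aggregation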
cells [5] = type: functional, cell-based
cells [6] = assay: cells
[7] = biological target: T3, Nuclear receptor subfamily 0 group B member 1 (Homo sapiens, UniProt P51843); type: functional, cell-based;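 further: HEK293T cells transfected with SF-1 and DAX-1 plus StAR promoter luciferase reporter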
T3 sequence (P51843 whole entry): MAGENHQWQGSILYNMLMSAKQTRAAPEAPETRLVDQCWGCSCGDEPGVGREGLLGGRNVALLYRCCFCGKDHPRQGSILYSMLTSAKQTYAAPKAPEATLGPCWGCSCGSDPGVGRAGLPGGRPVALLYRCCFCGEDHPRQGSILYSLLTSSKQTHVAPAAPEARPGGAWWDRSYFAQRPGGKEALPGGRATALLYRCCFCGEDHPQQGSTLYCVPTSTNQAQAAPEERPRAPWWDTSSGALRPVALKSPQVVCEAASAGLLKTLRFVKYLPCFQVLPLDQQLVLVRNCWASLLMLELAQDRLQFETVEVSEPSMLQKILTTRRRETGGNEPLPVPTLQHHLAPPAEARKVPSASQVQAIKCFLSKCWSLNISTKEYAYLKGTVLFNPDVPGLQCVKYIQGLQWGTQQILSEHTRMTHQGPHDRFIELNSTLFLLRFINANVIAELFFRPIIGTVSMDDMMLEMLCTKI

[8] = biological target: Voltage-gated inwardly rectifying potassium channel KCNH2 (Homo sapiens, UniProt Q12809); assay: hERG protection from proarrhythmic block, potency, dose response, cell-based, thallium flux (AID 2121); type: ADME
Major prion protein = Major prion protein (Homo sapiens, UniProt P04156); type: functional, cell-based
[9] = biological target: T4, Neuropeptide Y receptor type 2 (Homo sapiens, UniProt P49146); type: functional, cell-based;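 further: HEK293 cells expressing the receptor and a CNG channel; stimulus was NPY near EC95 followed by isoproterenol to raise cAMP; antagonist potency measured as restoring cAMP signal that NPY suppresses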
[10] = biological target: T5, Neuropeptide Y receptor type 1 (Homo sapiens, UniProt P25929); type: functional;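 further: HEK293 cells with a CNG channel challenged with NPY then isoproterenol; potency as antagonist that reverses NPY suppression of cAMP signal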
[11] = Luminescence Cell-Based Dose Retest to Confirm Inhibitors of Cancer Stem Cells. [Related pubchem assays (depositor defined):AID2717, AID2721]; type: functional; conditions: Homo sapiens
[12] = inhibitors of intracellular T. cruzi replication, confirmation, NIH3T3 host cells, beta-gal luminescence (AID 2044); type: functional, cell-based;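 further: intracellular parasites grown in NIH/3T3 mouse fibroblasts as host cells; luminescent beta-galactosidase reporter signal from transgenic T. cruzi replicating inside host cells; inhibitors lower the luminescence signal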
[13] = cytotoxicity toward NIH3T3 fibroblasts, dose response, counter-screen, cell-based, ATP luminescence, mouse fibroblasts (AID 2010); type: functional;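 further: cells exposed to compound for about 90 hours before reading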
[14] = biological target: T6, Metabotropic glutamate receptor 7 (Homo sapiens, UniProt Q14831); assay: Fold shift mGlu7 using calcium mobilization.; type: functional
[15] = biological target: T7, Metabotropic glutamate receptor 4 (Homo sapiens, UniProt Q14833); assay: agonist response potentiation at mGlu4 receptor – cell-based, GIRK thallium flux, mechanism study for group III mGlu PAM project, late-stage follow-up (AID 743466); type: functional
[16] = biological target: T6, Metabotropic glutamate receptor 7; assay: glutamate curve shift by mGlu7 potentiators, cell-based, rat, GIRK per title (AID 743386); type: functional
[17] = biological target: Metabotropic glutamate receptor 8 (Homo sapiens, UniProt O00222); assay: Fold shift mGlu8 using GIRK assay.; type: functional
[18] = biological target: Metabotropic glutamate receptor 2 (Homo sapiens, UniProt Q14416); assay: mGlu2 agonist response modulation at 10 µM, profiling panel, selectivity assay for mGlu8/mGlu7 PAM project, cell-based, GIRK thallium flux, agonist curve fold shift (AID 743433); type: functional
[19] = biological target: Metabotropic glutamate receptor 5 (Homo sapiens, UniProt P41594); assay: mGlu5 glutamate response modulation at 10 µM, profiling panel, selectivity assay for mGlu8/mGlu7 PAM project, cell-based, calcium fluorescence, glutamate curve fold shift (AID 743419); type: functional
[20] = biological target: T7, Metabotropic glutamate receptor 4; assay: Fold shift mGlu4, mGlu7, mGlu8 using calcium mobilization.; type: functional
[21] = biological target: Metabotropic glutamate receptor 3 (Homo sapiens, UniProt Q14832); assay: Selectivity Studies of mglur8 probe at mglur3.; type: functional
[22] = biological target: Metabotropic glutamate receptor 6 (Homo sapiens, UniProt O15303); assay: mGlu6 agonist response modulation at 10 µM, profiling panel, selectivity assay for mGlu8/mGlu7 PAM project, cell-based, GIRK thallium flux, agonist curve fold shift (AID 743421); type: functional
[23] = biological target: Protein-tyrosine kinase 2-beta (Homo sapiens, UniProt Q14289);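 further: potency of inhibitors of PYK2 kinase phosphorylation of poly-GT substrate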
[24] = Vero cell cytotoxicity, dose response, cytotoxicity control for Vif-APOBEC3G degradation inhibitor project, Vero cells (AID 1117358); type: functional; conditions: Human immunodeficiency virus 1, Vero
Protein Tat = Protein Tat (Human immunodeficiency virus type 1 group M subtype B (isolate HXB2)(HIV-1), UniProt P04608); type: functional;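 further: tat binding to TAR RNA read out by fluorescence polarization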
[25] = biological target: T5, Neuropeptide Y receptor type 1; assay: NPY-Y1 receptor antagonist potency, dose response, cell-based (AID 1277); type: functional
[26] = biological target: T4, Neuropeptide Y receptor type 2; assay: NPY-Y2 antagonist potency, selectivity check, dose response, counter-screen for NPY-Y1 antagonist project, cell-based (AID 1278); type: functional
[27] = biological target: T8, Rac GTPase-activating protein 1 (Homo sapiens, UniProt Q9H0H5); assay: MgcRacGAP GTPase-activating activity inhibitors, confirmation, biochemical, ADP Hunter fluorescence, primary and confirmatory (AID 624330); type: functional
T8 sequence (Q9H0H5 whole entry): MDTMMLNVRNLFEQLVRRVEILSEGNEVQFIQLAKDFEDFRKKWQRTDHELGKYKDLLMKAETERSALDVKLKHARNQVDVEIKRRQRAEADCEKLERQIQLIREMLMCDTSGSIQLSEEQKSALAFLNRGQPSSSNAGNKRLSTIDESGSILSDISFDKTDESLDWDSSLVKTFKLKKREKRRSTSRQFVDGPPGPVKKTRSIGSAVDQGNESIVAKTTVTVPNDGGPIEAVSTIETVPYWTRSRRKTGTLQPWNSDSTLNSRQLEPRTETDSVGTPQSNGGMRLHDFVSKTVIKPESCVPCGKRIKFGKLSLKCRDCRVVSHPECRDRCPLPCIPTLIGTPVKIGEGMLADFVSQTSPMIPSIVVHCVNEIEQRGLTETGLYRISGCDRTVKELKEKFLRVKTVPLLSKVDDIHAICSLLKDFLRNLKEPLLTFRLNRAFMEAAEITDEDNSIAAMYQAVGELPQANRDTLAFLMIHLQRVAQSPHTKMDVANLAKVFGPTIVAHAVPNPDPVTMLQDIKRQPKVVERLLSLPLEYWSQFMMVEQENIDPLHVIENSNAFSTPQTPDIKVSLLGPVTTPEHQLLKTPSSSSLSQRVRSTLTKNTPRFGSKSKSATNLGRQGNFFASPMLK

[28] = biological target: T9, Tyrosine-protein phosphatase non-receptor type 7 (Homo sapiens, UniProt P35236); assay: inhibitors of human HePTP phosphatase, […], biochemical, absorbance, leukemia target (AID 521); type: functional
T9 sequence (P35236 whole entry): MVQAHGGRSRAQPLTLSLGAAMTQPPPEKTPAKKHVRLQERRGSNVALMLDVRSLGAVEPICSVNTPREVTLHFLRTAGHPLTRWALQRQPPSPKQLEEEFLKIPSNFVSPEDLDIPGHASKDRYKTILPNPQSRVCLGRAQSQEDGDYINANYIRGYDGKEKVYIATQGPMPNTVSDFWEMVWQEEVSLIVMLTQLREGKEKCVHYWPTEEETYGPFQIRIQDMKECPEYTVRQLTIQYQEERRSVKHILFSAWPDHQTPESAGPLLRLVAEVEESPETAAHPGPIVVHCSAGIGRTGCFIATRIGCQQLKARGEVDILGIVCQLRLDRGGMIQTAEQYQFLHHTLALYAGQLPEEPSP

[29] = biological target: Diphosphomevalonate decarboxylase (Streptococcus pneumoniae serotype 2 (strain D39 / NCTC 7466), UniProt Q9FD53); assay: S. pneumoniae DPM-DC inhibition retest, confirmation, biochemical, cuvette format, coupled NADH fluorescence (AID 1028); type: functional
[30] = biological target: Ubiquitin carboxyl-terminal hydrolase BAP1 (Homo sapiens, UniProt Q92560); assay: BAP1 deubiquitinase inhibitors, dose response, biochemical (AID 714); type: functional

T6 sequence (Q14831 whole entry): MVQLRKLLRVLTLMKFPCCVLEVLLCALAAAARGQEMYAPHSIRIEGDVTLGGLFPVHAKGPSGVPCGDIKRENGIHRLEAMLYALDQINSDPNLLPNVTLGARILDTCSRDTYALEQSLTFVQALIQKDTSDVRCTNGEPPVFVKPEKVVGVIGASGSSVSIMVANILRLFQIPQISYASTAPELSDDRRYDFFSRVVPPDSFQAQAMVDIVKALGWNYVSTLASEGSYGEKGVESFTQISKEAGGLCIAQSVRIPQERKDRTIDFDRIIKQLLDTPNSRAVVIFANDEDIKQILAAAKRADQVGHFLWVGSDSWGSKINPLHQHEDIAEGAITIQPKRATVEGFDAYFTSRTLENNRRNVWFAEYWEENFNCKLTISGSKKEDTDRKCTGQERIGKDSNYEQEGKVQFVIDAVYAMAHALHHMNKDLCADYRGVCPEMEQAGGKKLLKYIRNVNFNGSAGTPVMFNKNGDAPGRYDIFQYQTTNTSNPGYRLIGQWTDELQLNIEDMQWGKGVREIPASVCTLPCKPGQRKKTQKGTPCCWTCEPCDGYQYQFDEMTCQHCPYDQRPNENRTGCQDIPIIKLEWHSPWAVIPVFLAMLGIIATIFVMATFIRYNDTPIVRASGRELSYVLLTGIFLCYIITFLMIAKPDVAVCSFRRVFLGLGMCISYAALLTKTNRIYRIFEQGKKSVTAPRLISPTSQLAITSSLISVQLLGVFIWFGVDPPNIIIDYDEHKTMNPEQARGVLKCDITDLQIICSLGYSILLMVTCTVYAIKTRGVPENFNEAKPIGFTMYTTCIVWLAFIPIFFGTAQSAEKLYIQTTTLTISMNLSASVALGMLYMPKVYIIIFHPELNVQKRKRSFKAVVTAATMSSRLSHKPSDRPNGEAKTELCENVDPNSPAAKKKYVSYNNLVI
T4 sequence (P49146 whole entry): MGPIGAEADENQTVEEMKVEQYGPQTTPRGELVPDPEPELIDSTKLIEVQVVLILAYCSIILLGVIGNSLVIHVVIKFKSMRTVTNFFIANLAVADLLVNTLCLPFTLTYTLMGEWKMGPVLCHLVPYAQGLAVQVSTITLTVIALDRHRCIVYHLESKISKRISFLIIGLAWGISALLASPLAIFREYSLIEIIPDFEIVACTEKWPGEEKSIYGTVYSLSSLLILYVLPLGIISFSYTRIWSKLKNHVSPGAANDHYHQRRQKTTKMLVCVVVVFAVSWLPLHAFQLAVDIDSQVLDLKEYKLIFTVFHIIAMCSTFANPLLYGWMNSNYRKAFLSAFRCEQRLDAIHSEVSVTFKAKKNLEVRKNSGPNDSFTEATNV
T7 sequence (Q14833 whole entry): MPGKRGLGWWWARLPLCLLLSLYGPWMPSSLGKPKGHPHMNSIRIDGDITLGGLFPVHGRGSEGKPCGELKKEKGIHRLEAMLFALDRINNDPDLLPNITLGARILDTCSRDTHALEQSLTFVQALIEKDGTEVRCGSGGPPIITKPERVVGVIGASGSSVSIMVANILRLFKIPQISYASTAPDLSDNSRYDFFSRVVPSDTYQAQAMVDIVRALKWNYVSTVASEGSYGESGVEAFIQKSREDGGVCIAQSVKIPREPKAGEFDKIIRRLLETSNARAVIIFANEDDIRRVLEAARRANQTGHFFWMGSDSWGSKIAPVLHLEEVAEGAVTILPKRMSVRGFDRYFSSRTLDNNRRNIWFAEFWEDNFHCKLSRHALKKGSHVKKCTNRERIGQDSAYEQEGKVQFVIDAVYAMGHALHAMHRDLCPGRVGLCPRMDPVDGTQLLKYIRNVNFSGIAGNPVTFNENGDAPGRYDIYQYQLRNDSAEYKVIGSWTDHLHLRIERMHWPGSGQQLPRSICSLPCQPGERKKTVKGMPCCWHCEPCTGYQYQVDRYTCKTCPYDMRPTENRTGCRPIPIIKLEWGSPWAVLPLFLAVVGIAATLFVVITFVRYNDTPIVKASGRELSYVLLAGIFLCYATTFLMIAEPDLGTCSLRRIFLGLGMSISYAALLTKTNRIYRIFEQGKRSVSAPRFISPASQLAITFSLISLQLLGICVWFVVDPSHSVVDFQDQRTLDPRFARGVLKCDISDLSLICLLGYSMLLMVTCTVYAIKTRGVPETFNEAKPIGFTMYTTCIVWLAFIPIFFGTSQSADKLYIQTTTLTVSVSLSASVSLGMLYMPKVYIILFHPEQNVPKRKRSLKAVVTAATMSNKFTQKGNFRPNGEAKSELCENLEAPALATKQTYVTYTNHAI
T5 sequence (P25929 whole entry): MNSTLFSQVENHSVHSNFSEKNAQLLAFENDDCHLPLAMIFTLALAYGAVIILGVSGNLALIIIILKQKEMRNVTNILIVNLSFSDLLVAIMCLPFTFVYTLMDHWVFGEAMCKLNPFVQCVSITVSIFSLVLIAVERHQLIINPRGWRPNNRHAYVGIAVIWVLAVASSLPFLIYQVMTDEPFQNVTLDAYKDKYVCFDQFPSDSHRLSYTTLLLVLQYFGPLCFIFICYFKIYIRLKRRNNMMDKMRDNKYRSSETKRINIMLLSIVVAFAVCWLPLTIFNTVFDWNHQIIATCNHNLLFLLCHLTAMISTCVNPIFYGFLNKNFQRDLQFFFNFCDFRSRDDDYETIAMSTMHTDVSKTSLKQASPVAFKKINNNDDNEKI
Chain of Metabotropic glutamate receptor 8 (O00222 whole entry): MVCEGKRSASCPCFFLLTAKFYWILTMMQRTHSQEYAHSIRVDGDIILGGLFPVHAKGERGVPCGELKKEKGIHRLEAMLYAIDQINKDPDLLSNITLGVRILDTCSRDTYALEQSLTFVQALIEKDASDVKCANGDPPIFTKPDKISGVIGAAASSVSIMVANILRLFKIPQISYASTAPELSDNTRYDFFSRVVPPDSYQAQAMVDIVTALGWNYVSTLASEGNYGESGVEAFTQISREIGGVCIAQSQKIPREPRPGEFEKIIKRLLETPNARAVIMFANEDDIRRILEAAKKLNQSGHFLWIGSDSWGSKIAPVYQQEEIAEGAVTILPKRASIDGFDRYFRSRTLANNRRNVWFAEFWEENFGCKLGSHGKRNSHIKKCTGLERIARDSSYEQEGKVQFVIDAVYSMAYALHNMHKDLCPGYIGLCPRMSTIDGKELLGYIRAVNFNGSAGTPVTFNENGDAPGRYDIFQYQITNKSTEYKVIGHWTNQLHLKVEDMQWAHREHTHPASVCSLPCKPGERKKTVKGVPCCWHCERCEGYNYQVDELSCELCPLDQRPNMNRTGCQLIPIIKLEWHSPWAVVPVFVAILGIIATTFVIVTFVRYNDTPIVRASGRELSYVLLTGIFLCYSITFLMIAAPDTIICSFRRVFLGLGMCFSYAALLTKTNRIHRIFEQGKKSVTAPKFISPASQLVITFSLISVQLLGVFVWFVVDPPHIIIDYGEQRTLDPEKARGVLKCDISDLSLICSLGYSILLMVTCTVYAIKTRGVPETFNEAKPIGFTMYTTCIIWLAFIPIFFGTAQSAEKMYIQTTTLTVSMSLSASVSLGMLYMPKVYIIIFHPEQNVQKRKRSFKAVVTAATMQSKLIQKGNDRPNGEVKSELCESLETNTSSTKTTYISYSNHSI
Chain of Diphosphomevalonate decarboxylase (Q9FD53 whole entry): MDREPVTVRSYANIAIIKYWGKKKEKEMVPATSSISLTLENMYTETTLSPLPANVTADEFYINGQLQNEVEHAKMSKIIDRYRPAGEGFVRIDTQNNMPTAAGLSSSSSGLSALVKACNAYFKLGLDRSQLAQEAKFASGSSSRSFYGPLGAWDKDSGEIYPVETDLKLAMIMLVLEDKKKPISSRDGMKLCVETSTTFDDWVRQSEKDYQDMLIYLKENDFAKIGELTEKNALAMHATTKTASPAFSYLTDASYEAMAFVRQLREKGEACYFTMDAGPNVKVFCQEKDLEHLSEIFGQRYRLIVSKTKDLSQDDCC
Chain of Metabotropic glutamate receptor 3 (Q14832 whole entry): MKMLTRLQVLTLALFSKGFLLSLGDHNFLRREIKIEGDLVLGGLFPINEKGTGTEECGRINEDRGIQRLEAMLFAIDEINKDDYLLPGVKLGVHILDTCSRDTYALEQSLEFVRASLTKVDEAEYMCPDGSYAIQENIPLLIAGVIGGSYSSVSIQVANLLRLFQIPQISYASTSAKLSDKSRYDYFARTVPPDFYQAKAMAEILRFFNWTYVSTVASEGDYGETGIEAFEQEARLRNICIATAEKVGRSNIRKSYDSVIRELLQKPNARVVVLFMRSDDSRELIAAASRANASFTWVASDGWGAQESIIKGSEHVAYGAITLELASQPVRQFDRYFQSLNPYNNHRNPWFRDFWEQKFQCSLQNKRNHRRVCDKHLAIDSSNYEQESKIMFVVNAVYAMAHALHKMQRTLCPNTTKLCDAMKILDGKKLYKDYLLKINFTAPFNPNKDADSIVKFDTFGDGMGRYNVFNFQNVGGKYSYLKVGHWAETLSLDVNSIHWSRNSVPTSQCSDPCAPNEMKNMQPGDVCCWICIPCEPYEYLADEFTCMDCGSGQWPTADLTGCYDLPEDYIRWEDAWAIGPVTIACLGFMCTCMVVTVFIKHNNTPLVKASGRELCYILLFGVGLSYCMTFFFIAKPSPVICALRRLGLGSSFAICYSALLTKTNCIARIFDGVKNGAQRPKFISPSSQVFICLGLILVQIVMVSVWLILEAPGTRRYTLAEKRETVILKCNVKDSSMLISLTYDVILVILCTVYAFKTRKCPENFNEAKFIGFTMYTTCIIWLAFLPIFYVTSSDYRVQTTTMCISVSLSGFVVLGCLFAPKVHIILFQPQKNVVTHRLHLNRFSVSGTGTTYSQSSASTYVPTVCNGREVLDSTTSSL
Chain of G-protein coupled receptor 55 (Q9Y2T6 whole entry): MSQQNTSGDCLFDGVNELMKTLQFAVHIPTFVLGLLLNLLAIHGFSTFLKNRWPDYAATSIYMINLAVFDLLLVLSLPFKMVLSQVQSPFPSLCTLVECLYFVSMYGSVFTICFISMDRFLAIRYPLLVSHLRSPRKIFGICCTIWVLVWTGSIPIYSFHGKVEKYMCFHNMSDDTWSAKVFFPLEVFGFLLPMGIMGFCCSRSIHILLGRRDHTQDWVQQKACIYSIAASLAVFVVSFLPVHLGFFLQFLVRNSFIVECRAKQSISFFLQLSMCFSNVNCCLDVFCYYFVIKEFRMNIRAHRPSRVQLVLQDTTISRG

COc1ccc(C(=O)NCc2nc3ccccc3[nH]2)cc1OC
IC50 [1]: 23.2 µM (not active)

CN(C(=O)c1cccc(COc2ccc(Cl)cc2Cl)c1)c1ccccc1
EC50 (Protein RecA): 7.59 µM (active)
EC50 [2]: 0.16 µM (active)
AC50 [3]: 10.6 µM (active)
IC50 [4]: 2.2 µM (active)

O=C(COc1ccc2ccccc2c1Br)Nc1cccnc1
IC50 (cells [5]): > 67.5 µM (inactive)
IC50 (cells [6]): > 138 µM (inactive)
IC50 [7]: > 67.5 µM (inactive)
EC50 [8]: 0.24 µM (active)
IC50 (Major prion protein): 5.81 µM (active)

CN1CCN(c2ccccc2NC(=O)c2ccc(-c3ccc(Cl)cc3Cl)o2)CC1
IC50 [9]: > 12 µM (not active)
IC50 [10]: 4.46 µM (active)
AC50 [11]: 3.09 µM (active)
EC50 [12]: 1.06 µM (active)
EC50 [13]: > 60 µM (not active)

COC(=O)c1ccc(-n2c(C)cc(C(=O)CSc3ccc(NC(C)=O)cc3)c2C)cc1
EC50 [14]: 16.2 µM (active)
EC50 [15]: 4.1 µM (inactive)
EC50 [16]: 28.4 µM (active)
EC50 [17]: 0.73 µM
EC50 [18]: 0.37 µM (inactive)
EC50 [19]: 0.35 µM (inactive)
EC50 [20]: 1.78 µM (active)
EC50 [21]: 0.18 µM (inactive)
EC50 [22]: 0.39 µM (active)

O=C(OCCN=C1NS(=O)(=O)c2ccccc21)c1cccnc1
IC50 [23]: > 69.5 µM (not active)

CN1CCc2nc3ccc(Cl)cc3c(-c3ccccc3Cl)c2C1
CC50 [24]: > 40 µM (active)
IC50 (Protein Tat): > 100 µM (active)

COc1ccc(Oc2c[nH]nc2-c2ccc(O)cc2O)cc1
IC50 [25]: > 35 µM (not active)
IC50 [26]: > 35 µM (not active)
IC50 [27]: 28.3 µM (active)

Cc1cnn(C(=S)NCc2ccc(Cl)cc2)c1
IC50 [28]: > 100 µM (not active)

CCCNC(=O)c1ccccc1-n1sc2ccccc2c1=O
IC50 [29]: 31.3 µM (active)

CCCCn1c2c(c3ccccc31)CCc1nonc1-2
IC50 [30]: > 50 µM (not active)
